US20240207263A1, “SELECTIVE MODULATORS OF ATAXIA TELA[…] (ATM) KINASE AND USES THEREOF” (priority 2021, published 2024)

Experiments:
[1] = system: phosp-KAP1 in MCF-7 cells; test: phosp-KAP1 MCF-7 cellular potency assay (Assay f); type: cell-based; details: Homo sapiens, MCF7; MCF-7 cells, etoposide; read-out: Etoposide MCF-7 cellular IC50
Experimental: Assay f): phosp-KAP1 MCF-7 Cellular Potency
MCF-7 cells were seeded to a 384-well cell-culture plate, 25 μl/well which were incubated at 37° C. and 5% CO2 for 24 hr. Test compounds were added to the 384-well plates. Etoposide at final concentration of 100 μM was then added to each well except Vehicle control wells, which were incubated at 37° C. and 5% CO2 for 1 hour. After medium removal, cells were fixed by the addition of 25 μl/well of 8% paraformaldehyde in PBSA and incubated for 20 minutes at room temperature. After the plates were rinsed 3 times with PBSA, 50 ul permeabilization buffer (0.1% Triton X-100 in PBS) was added and the plates were incubated for 20 minutes at room temperature. After the plates were rinsed with PBSA, block the cells by adding 50 μl of Odyssey Blocking Buffer in 384-well plate and then incubate for 1.5 hours at room temperature. Remove blocking buffer by Plate washer (BioTek ELx405 select CW). […] The plates were rinsed 5 times with PBST (0.1% Tween-20 in PBS).
• 1) Fluorescence intensity (FI) was detected for each well. • 2) % inhibition is calculated as follow:
[formula] • FIpositive: The average FI for the positive controls across the plate. • FIvehicle: The average FI for negative controls across the plate. • 3) Calculate IC50 and Plot effect-dose curve of compounds: • Calculate IC50 by fitting % inhibition values and log of compound concentrations to nonlinear regression (dose response−variable slope) with Graphpad prism 6.0.
Y=Bottom+(Top−Bottom)/(1+10^((Log IC50−X)*HillSlope)) • X: log of compounds concentration; Y: % inhibition

[2] = molecular target: ATM (Homo sapiens (Human), UniProt Q13315); test: biochemical; type: biochemical; details: read-out: ATM IC50
Source text: Assay a): ATM Biochemical Potency
Data was collected by Caliper.

Chain of ATM (Q13315 whole entry, looked up): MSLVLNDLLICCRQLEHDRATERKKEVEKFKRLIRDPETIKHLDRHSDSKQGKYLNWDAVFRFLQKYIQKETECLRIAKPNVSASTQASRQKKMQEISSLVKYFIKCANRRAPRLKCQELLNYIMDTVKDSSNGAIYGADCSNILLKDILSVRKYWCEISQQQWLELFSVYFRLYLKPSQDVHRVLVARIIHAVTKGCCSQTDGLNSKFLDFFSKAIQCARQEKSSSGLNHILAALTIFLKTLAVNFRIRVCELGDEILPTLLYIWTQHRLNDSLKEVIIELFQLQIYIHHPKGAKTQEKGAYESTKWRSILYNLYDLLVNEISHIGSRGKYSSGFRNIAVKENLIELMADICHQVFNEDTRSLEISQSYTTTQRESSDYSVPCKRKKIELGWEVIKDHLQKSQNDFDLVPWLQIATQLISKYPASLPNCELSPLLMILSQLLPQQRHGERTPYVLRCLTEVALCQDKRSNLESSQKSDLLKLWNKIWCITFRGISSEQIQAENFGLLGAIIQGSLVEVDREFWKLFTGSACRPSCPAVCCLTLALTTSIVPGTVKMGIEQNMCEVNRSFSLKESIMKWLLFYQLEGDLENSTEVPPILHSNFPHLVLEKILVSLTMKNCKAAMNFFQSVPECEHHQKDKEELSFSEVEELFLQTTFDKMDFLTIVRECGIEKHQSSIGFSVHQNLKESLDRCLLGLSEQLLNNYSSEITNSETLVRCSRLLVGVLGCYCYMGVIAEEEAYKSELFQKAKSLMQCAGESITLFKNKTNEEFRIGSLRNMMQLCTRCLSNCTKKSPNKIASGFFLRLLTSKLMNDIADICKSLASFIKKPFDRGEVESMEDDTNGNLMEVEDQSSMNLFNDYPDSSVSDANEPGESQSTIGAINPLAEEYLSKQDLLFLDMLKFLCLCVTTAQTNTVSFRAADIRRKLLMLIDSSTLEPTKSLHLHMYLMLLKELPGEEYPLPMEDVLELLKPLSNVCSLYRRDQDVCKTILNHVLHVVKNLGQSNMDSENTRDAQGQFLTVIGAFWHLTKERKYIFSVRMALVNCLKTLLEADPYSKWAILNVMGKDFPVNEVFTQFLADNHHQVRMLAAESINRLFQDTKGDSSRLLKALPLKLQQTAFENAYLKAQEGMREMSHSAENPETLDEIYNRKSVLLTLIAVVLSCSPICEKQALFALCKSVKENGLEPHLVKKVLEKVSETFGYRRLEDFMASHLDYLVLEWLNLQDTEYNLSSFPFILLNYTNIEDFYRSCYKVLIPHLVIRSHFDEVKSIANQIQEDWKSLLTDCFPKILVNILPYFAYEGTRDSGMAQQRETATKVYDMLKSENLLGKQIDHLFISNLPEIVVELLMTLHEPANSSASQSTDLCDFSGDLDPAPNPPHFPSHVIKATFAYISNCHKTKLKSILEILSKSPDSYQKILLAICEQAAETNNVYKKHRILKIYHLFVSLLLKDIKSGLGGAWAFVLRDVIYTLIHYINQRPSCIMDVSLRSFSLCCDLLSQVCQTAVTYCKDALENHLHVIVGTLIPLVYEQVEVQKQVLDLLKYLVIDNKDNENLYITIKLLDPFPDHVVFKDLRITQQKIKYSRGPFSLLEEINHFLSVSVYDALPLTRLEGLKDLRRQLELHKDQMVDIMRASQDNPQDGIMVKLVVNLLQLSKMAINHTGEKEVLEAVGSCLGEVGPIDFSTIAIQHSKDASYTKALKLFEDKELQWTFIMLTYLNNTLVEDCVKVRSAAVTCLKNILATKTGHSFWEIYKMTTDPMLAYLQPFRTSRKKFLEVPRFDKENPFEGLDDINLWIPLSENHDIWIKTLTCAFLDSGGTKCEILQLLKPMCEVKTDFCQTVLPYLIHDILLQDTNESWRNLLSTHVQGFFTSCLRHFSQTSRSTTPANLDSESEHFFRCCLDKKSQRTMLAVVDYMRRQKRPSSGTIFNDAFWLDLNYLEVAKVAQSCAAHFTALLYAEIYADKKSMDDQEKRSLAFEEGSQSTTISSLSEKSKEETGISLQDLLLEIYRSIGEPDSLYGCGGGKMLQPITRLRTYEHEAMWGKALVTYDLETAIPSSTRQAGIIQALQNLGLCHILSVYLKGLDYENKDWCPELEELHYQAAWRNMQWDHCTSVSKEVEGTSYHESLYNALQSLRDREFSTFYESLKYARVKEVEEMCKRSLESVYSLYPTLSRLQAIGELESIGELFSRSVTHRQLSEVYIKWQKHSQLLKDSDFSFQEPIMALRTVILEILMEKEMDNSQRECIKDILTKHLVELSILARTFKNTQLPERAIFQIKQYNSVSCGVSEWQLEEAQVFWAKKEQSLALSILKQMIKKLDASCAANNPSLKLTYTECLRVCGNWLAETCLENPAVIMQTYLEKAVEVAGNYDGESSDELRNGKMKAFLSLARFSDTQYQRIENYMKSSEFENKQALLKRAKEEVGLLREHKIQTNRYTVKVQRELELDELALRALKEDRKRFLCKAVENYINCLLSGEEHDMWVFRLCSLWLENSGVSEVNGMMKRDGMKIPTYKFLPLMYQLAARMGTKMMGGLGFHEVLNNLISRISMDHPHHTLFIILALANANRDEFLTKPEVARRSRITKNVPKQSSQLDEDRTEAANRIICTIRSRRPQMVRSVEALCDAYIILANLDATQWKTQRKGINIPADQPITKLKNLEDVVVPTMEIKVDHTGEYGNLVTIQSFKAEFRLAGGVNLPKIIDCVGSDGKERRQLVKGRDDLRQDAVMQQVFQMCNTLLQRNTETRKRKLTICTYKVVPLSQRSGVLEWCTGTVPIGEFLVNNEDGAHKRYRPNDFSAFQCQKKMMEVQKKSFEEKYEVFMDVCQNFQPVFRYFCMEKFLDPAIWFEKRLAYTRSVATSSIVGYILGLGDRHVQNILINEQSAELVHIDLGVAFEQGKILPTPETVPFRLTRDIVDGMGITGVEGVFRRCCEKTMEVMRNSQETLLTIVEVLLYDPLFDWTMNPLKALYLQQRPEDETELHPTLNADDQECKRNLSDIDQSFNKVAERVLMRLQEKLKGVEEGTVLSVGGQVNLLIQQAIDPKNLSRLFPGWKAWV

Row | Compound | IC50 [1] [nM] | IC50 [2] [nM]
1 | C[C@@H](OCCN1CCC(C(F)(F)F)CC1)c1ccc(-c2ccc3nnc4c(c3c2)n(C2CCOCC2)c(=O)n4C)cn1 [Example 117, (R)-3-methyl-1-(tetrahydro-2H-pyran-4-yl)-8-(6-(1-(2-(4-(trifluoromethyl)piperidin-1-yl)ethoxy)ethyl)pyridin-3-yl)-1H-imidazo[4,5-c]cinnolin-2(3H)-one] | 65 | 3.7
2 | C[C@@H](OCCN1CCC2(CCC2)C1)c1ccc(-c2ccc3nnc4c(c3c2)n(C2CCOCC2)c(=O)n4C)cn1 [Example 118, (R)-8-(6-(1-(2-(6-azaspiro[3.4]octan-6-yl)ethoxy)ethyl)pyridin-3-yl)-3-methyl-1-(tetrahydro-2H-pyran-4-yl)-1H-imidazo[4,5-c]cinnolin-2(3H)-one] | 71 | 4.1
3 | CC(C)n1c(=O)n(C)c2nnc3cc(F)c(-c4ccc(COCCN5CCC(C)(C)CC5)nc4)cc3c21 [Example 133, 8-(6-((2-(4,4-dimethylpiperidin-1-yl)ethoxy)methyl)pyridin-3-yl)-7-fluoro-1-isopropyl-3-methyl-1H-imidazo[4,5-c]cinnolin-2(3H)-one] | 44 | 13
4 | CC(C)n1c(=O)n(C)c2nnc3cc(F)c(-c4ccc([C@@H](C)OCCN5CCC(C)(C)C5)nc4)cc3c21 [Example 137, (R)-8-(6-(1-(2-(3,3-dimethylpyrrolidin-1-yl)ethoxy)ethyl)pyridin-3-yl)-7-fluoro-1-isopropyl-3-methyl-1H-imidazo[4,5-c]cinnolin-2(3H)-one] | 22 | 6.3
5 | CC(C)n1c(=O)n(C)c2nnc3cc(F)c(-c4ccc([C@@H](C)OCCN5CCC6(CC5)CC6)nc4)cc3c21 [Example 140, (R)-8-(6-(1-(2-(6-azaspiro[2.5]octan-6-yl)ethoxy)ethyl)pyridin-3-yl)-7-fluoro-1-isopropyl-3-methyl-1H-imidazo[4,5-c]cinnolin-2(3H)-one] | 14 | 2.8
6 | COC1CCN(CCO[C@H](C)c2ccc(-c3cc4c(cc3F)nnc3c4n(C(C)C)c(=O)n3C)cn2)CC1 [Example 142, (R)-7-fluoro-1-isopropyl-8-(6-(1-(2-(4-methoxypiperidin-1-yl)ethoxy)ethyl)pyridin-3-yl)-3-methyl-1H-imidazo[4,5-c]cinnolin-2(3H)-one] | 24 | 4.7
7 | CC(C)n1c(=O)n(C)c2nnc3cc(F)c(-c4ccc([C@@H](C)OCCN5CCC(OC(F)(F)F)CC5)nc4)cc3c21 [Example 144, (R)-7-fluoro-1-isopropyl-3-methyl-8-(6-(1-(2-(4-(trifluoromethoxy)piperidin-1-yl)ethoxy)ethyl)pyridin-3-yl)-1H-imidazo[4,5-c]cinnolin-2(3H)-one] | 47 | 2.9
8 | C[C@@H](OCCN1CCC(C)(C)C1)c1ccc(-c2cc3c(cc2F)nnc2c3n(C3CCOCC3)c(=O)n2C)cn1 [Example 153, (R)-8-(6-(1-(2-(3,3-dimethylpyrrolidin-1-yl)ethoxy)ethyl)pyridin-3-yl)-7-fluoro-3-methyl-1-(tetrahydro-2H-pyran-4-yl)-1H-imidazo[4,5-c]cinnolin-2(3H)-one] | 43 | 8.5
9 | CO[C@H]1C[C@@H](n2c(=O)n(C)c3nnc4ccc(-c5ccc(COCCN6CCC(F)CC6)nc5)cc4c32)C1 [Example 174, 8-(6-((2-(4-fluoropiperidin-1-yl)ethoxy)methyl)pyridin-3-yl)-1-(cis-3-methoxycyclobutyl)-3-methyl-1H-imidazo[4,5-c]cinnolin-2(3H)-one] | 26 | 28
